For 41 compounds, inhibition results are on record in ChEMBL document CHEMBL4828709, “Discovery of 2,4-pyrimidinediamine derivatives as potent dual inhibitors of ALK and HDAC” (Eur J Med Chem, 2021).

The target in assay [1] is T1, Histone deacetylase 1 (Homo sapiens, UniProt Q13547). As to conditions: Sf9, dose 10.0 nM, time 15.0 min.
The target of assay [2] is T1, Histone deacetylase 1. As to conditions: Sf9, dose 100.0 nM, time 15.0 min.
Assay [3] addresses T2, ALK tyrosine kinase receptor (Homo sapiens, UniProt Q9UM73). As to the kind of experiment: Inhibition of ALK (unknown origin) at 100 nM preincubated for 10 mins followed by addition of substrate and ATP for 25 mins by caliper EZ reader method. The conditions noted are these: time 35.0 min.
Assay [4] addresses T2, ALK tyrosine kinase receptor. As to the kind of experiment: Inhibition of ALK (unknown origin) at 10 nM preincubated for 10 mins followed by addition of substrate and ATP for 25 mins by caliper EZ reader method. The conditions noted are these: time 35.0 min.

T2 sequence (Q9UM73 19-1620 limits assumed): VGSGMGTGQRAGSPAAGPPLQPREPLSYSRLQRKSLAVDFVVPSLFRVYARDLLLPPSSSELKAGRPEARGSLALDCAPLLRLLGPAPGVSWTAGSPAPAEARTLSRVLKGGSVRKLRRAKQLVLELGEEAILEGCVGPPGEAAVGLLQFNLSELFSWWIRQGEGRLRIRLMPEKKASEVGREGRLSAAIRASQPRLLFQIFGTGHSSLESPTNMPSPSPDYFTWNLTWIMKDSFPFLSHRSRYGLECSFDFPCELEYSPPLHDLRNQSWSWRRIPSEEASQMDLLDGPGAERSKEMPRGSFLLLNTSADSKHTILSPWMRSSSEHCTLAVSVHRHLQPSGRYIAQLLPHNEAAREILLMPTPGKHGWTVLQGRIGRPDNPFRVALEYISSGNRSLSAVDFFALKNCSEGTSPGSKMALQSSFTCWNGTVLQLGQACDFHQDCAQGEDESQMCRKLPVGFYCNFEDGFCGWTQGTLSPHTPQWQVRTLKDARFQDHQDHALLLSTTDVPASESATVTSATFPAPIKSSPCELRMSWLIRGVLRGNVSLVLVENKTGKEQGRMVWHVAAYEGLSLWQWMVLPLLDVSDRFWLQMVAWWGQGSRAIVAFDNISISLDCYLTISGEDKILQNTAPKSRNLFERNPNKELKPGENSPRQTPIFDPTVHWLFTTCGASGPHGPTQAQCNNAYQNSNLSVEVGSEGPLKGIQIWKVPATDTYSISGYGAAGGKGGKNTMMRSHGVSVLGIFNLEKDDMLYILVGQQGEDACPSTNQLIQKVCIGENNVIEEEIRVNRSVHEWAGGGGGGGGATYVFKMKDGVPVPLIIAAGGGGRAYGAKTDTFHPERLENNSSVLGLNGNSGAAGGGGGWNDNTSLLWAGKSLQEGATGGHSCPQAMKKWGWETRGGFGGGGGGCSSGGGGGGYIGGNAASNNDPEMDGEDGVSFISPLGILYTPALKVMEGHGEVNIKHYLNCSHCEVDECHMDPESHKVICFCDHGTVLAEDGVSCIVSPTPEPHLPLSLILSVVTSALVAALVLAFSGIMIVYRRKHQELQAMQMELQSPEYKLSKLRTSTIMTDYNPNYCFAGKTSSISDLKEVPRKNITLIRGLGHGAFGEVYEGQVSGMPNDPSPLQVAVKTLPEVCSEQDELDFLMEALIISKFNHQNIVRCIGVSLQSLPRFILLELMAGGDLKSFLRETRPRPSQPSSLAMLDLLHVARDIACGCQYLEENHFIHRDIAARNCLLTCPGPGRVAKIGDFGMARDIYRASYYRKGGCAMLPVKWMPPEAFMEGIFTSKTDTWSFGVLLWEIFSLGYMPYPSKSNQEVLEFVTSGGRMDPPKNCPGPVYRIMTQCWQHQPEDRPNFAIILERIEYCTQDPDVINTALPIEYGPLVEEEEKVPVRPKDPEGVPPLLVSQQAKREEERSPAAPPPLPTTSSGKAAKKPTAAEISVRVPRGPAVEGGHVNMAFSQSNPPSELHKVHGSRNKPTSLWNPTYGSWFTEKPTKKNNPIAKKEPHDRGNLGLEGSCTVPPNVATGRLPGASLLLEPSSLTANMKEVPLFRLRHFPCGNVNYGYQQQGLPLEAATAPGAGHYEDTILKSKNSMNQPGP
T1 sequence (Q13547 whole entry): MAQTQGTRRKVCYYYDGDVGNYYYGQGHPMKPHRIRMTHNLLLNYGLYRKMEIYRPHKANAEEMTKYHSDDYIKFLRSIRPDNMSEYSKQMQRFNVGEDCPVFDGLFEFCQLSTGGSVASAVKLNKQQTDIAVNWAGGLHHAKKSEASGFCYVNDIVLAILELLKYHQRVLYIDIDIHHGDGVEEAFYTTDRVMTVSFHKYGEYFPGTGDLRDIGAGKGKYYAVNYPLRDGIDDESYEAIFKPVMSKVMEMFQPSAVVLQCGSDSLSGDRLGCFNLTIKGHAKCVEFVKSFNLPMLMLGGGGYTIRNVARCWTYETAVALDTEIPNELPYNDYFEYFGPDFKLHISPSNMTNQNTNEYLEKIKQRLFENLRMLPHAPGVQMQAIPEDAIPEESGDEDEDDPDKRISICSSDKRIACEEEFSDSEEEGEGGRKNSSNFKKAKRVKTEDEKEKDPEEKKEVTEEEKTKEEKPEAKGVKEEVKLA

By inhibition is commonly meant the drop in the measured response relative to a control, in per cent. On to `CC(C)S(=O)(=O)c1ccccc1Nc1nc(Nc2ccc(C(=O)NCCC(=O)NO)cc2)ncc1Cl`, for which the inhibition in assay [1] was -1%; in assay [2], 3%; in assay [3], 97.3%; in assay [4], 86.7%.
In the same order, the values of `O=C(CCCCCCC(=O)Nc1ccc(Nc2ncc(Cl)c(Nc3ccccc3Br)n2)cc1)NO` are 67%, 88%, 25% and 0.2%.
Take `O=C(CCCCCCC(=O)Nc1ccc(Nc2ncc(Cl)c(Nc3ccccc3)n2)cc1)NO`: the inhibition stood at 84% in assay [1], 99% in assay [2], 36.9% in assay [3] and 4.9% in assay [4].
On the same counts, the results for `Cc1ccccc1Nc1nc(Nc2ccc(NC(=O)CCCCCCC(=O)NO)cc2)ncc1Cl` are 91%, 99%, 27.8% and 1.2%.
In the same order, the values of `CC(C)S(=O)(=O)c1ccccc1Nc1nc(Nc2cccc(NC(=O)CCCC(=O)NO)c2)ncc1Cl` are 38%, 83%, 98.1% and 87%.
In the case of `Cc1cc(C(=O)NCCCCCC(=O)NO)ccc1Nc1ncc(Cl)c(Nc2ccccc2S(=O)(=O)C(C)C)n1`, the inhibition was 58% in assay [1], 96% in assay [2], 97.3% in assay [3] and 93.1% in assay [4].
On the same counts, the results for `Cc1cc(Nc2ncc(Cl)c(Nc3ccccc3S(=O)(=O)C(C)C)n2)ccc1C(=O)NCCCCCCC(=O)NO` are 35%, 78%, 101% and 98.1%.
In the case of `O=C(CCCCCCC(=O)Nc1ccc(Nc2ncc(Cl)c(Nc3ccccc3Cl)n2)cc1)NO`, the inhibition in assay [1] worked out at 67%; in assay [2] it was 90%; in assay [3], 21.2%; in assay [4] it was 3.1%.
Consider `CC(C)S(=O)(=O)c1ccccc1Nc1nc(Nc2ccc(C(=O)NCCCCCCC(=O)NO)c(Cl)c2)ncc1Cl`, for which the inhibition in assay [1] worked out at 24%; in assay [2], 67%; in assay [3], 100%; in assay [4], 70.3%.
For the compound `CC(C)S(=O)(=O)c1ccccc1Nc1nc(Nc2cccc(C(=O)NCCCCCCC(=O)NO)c2)ncc1Cl`, the inhibition in assay [1] is 41%; in assay [2] it was 84%; in assay [3], 96.6%; in assay [4] it was 82.6%.
For the compound `CC(C)S(=O)(=O)c1ccccc1Nc1nc(Nc2ccc(NC(=O)CC(=O)NO)cc2)ncc1Cl`, the inhibition was -10% in assay [1], -7% in assay [2], 98.2% in assay [3] and 92.1% in assay [4].
In the same order, the values of `CC(C)S(=O)(=O)c1ccccc1Nc1nc(Nc2ccc(C(=O)NCCCCCC(=O)NO)c(Cl)c2)ncc1Cl` are 45%, 93%, 97.8% and 87.7%.
On to `COc1cccc(Nc2nc(Nc3ccc(NC(=O)CCCCCCC(=O)NO)cc3)ncc2Cl)c1`, for which the inhibition in assay [1] is 83%; in assay [2] it was 97%; in assay [3], 20%; in assay [4], 1.2%.
In the same order, the values of `CC(C)S(=O)(=O)c1ccccc1Nc1nc(Nc2cccc(NC(=O)CCCCCC(=O)NO)c2)ncc1Cl` are 55%, 86%, 98% and 89.4%.
In the case of `CC(C)S(=O)(=O)c1ccccc1Nc1nc(Nc2ccc(NC(=O)CCCCC(=O)NO)cc2)ncc1Cl`, the inhibition in assay [1] was -8%; in assay [2], 20%; in assay [3], 99%; in assay [4], 84.7%.
Turning to `CC(C)S(=O)(=O)c1ccccc1Nc1nc(Nc2ccc(C(=O)NO)cc2)ncc1Cl`, the inhibition in assay [1] turned out to be 0.1%; in assay [4], 81.1%.
For the compound `COc1ccc(Nc2nc(Nc3ccc(NC(=O)CCCCCCC(=O)NO)cc3)ncc2Cl)cc1OC`, the inhibition in assay [1] came to 65%; in assay [2], 94%; in assay [3] it was 17.6%; in assay [4] it was 3.1%.
For `CC(C)S(=O)(=O)c1ccccc1Nc1nc(Nc2ccc(/C=C/C(=O)NO)cc2)ncc1Cl`, the inhibition in assay [1] worked out at 0%; in assay [2] it was 3%; in assay [3] it was 101%; in assay [4] it was 71.6%.
On the same counts, the results for `Cc1ccc(Nc2ncc(Cl)c(Nc3ccccc3S(=O)(=O)C(C)C)n2)cc1NC(=O)CCCCC(=O)NO` are 8%, 39%, 98.5% and 76.9%.
Take `CC(C)S(=O)(=O)c1ccccc1Nc1nc(Nc2ccc(C(=O)NCCCCC(=O)NO)cc2)ncc1Cl`: the inhibition in assay [1] was determined as 8%; in assay [2], 31%; in assay [3], 98.8%; in assay [4], 85.2%.
Regarding `COc1cc(C(=O)NCCCCCC(=O)NO)ccc1Nc1ncc(Cl)c(Nc2ccccc2S(=O)(=O)C(C)C)n1`, the inhibition is 45% in assay [1], 86% in assay [2], 98.5% in assay [3] and 97.3% in assay [4].
For `COc1cccc(Nc2nc(Nc3ccc(NC(=O)CCCCCCC(=O)NO)cc3)ncc2C(F)(F)F)c1`, the inhibition is 56% in assay [1], 89% in assay [2], 7.6% in assay [3] and 4.9% in assay [4].
On the same counts, the results for `COc1cc(Nc2ncc(Cl)c(Nc3ccccc3S(=O)(=O)C(C)C)n2)ccc1C(=O)NCCCCCC(=O)NO` are 26%, 74%, 101% and 99%.
`CC(C)S(=O)(=O)c1ccccc1Nc1nc(Nc2ccc(C(=O)NCCCCCC(=O)NO)cc2)ncc1Cl`: the inhibition in assay [1] was 55%; in assay [2], 101%; in assay [3], 98.1%; in assay [4], 89.4%.
In the same order, the values of `CC(C)S(=O)(=O)c1ccccc1Nc1nc(Nc2cccc(C(=O)NCCC(=O)NO)c2)ncc1Cl` are -1%, 4%, 99.1% and 81%.
On the same counts, the results for `CC(C)S(=O)(=O)c1ccccc1Nc1nc(Nc2ccc(NC(=O)CCCCCCC(=O)NO)cc2)ncc1F` are 70%, 94%, 96% and 66.3%.
On the same counts, the results for `CC(C)S(=O)(=O)c1ccccc1Nc1nc(Nc2ccc(NC(=O)CCCC(=O)NO)cc2)ncc1Cl` are 4%, 17%, 98.5% and 87.6%.
Regarding `CC(C)S(=O)(=O)c1ccccc1Nc1nc(Nc2cccc(C(=O)NCCCCC(=O)NO)c2)ncc1Cl`, the inhibition in assay [1] came to 23%; in assay [2], 65%; in assay [3], 97.7%; in assay [4] it was 81%.
On to `COc1cnc(Nc2ccc(NC(=O)CCCCCCC(=O)NO)cc2)nc1Nc1ccccc1S(=O)(=O)C(C)C`, for which the inhibition was 68% in assay [1], 91% in assay [2], 94.9% in assay [3] and 60.4% in assay [4].
With `CC(C)S(=O)(=O)c1ccccc1Nc1nc(Nc2cccc(C(=O)NCCCCCC(=O)NO)c2)ncc1Cl`, the inhibition in assay [1] stood at 35%; in assay [2], 84%; in assay [3], 97.3%; in assay [4], 83.2%.
In the same order, the values of `CC(C)S(=O)(=O)c1ccccc1Nc1nc(Nc2cccc(C(=O)NCCCC(=O)NO)c2)ncc1Cl` are 4%, 44%, 98% and 85.7%.
On the same counts, the results for `Cc1c(Nc2ncc(Cl)c(Nc3ccccc3S(=O)(=O)C(C)C)n2)cccc1C(=O)NCCCCCC(=O)NO` are 7%, 49%, 98.5% and 86.8%.
Consider `Cc1cnc(Nc2ccc(NC(=O)CCCCCCC(=O)NO)cc2)nc1Nc1ccccc1S(=O)(=O)C(C)C`, for which the inhibition in assay [1] came out at 63%; in assay [2], 93%; in assay [3], 97.9%; in assay [4], 83.5%.
In the same order, the values of `CC(C)S(=O)(=O)c1ccccc1Nc1nc(Nc2cccc(NC(=O)CCCCC(=O)NO)c2)ncc1Cl` are 10%, 41%, 98% and 87.2%.
As for `Cc1cc(Nc2ncc(Cl)c(Nc3ccccc3S(=O)(=O)C(C)C)n2)ccc1C(=O)NCCCCCC(=O)NO`, the inhibition in assay [1] was found to be 48%; in assay [2], 93%; in assay [3], 102%; in assay [4], 97.8%.
Regarding `Cc1cccc(Nc2nc(Nc3ccc(NC(=O)CCCCCCC(=O)NO)cc3)ncc2Cl)c1`, the results for the inhibition in assay [3] and in assay [4] were 4.9% and 0.2%, respectively.
In the same order, the values of `COc1ccc(C)c(Nc2nc(Nc3ccc(NC(=O)CCCCCCC(=O)NO)cc3)ncc2Cl)c1` are 4.9% and -0.7%.
As for `CC(C)S(=O)(=O)c1ccccc1Nc1nc(Nc2ccc(NC(=O)CCCCCC(=O)NO)cc2)ncc1Cl`, the inhibition is 52% in assay [1], 90% in assay [2], 98.8% in assay [3] and 86.5% in assay [4].
Turning to `CC(C)S(=O)(=O)c1ccccc1Nc1nc(Nc2cccc(C(=O)NO)c2)ncc1Cl`, the inhibition in assay [1] was -3%.
In the case of `CC(C)S(=O)(=O)c1ccccc1Nc1nc(Nc2ccc(NC(=O)CCC(=O)NO)cc2)ncc1Cl`, the inhibition in assay [1] is -2%.
Consider `Cc1ccc(Nc2nc(Nc3ccc(NC(=O)CCCCCCC(=O)NO)cc3)ncc2Cl)cc1`, for which the inhibition in assay [1] amounted to 86%; in assay [2], 97%; in assay [3], 30.1%; in assay [4], 7.2%.
